Values after ≈ are worked out from the molar mass of the structure shown.
Test system: Mycobacterium smegmatis (ATCC607)
Experiment: In-vitro anti-bacterial activity against strain M. Smegmatis ATCC607
Assay type: cell-based
Conditions: 90% inhibitory concentration for bacterial growth, 48 hours, Alamar Blue fluorescence
Procedure, shortened: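 IC90 (μg/ml) derived from Alamar Blue fluorescence (530/590 nm) after 48 h growth at 37 °C under 5% CO2. About 250 CFU per well in Mueller-Hinton broth faced five-fold serial compound dilutions in BSA-containing wells.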

How did the “IC90 MSM 607” value turn out when Cc1cc(F)ccc1C1CC(O)(C(c2ccccc2)c2cc3cc(S(C)(=O)=O)ccc3[nH]c2=O)CCN1 (centres unmarked) [Compound 237] was run?
The value was 11.06 µg/mL (≈ 21.2 µM).

Which “IC90 MSM 607” value does the source give for Cc1cc(F)ccc1C1CC(O)(C(c2ccccc2)c2cc3cc(S(C)(=O)=O)ccc3[nH]c2=O)CCN1 (centres unmarked) [Compound 238] here?
Its value is greater than 13.99 µg/mL.

How did the “IC90 MSM 607” value turn out when O=c1[nH]c2ccc(Cl)cc2cc1C(c1ccc(Cl)cc1)C1(O)CCNC(Cc2ccccc2)C1 (centres unmarked) [Compound 239] was run?
Its value is 2.97 µg/mL (≈ 6.02 µM).

With O=c1[nH]c2ccc(Cl)cc2cc1C(c1ccc(Cl)cc1)C1(O)CCNC(Cc2ccccc2)C1 (centres unmarked) [Compound 240] as the compound, how does the “IC90 MSM 607” value read?
Its value is 4.21 µg/mL (≈ 8.53 µM).

With O=c1[nH]c2ccc(Cl)cc2cc1C(c1ccc(Cl)cc1)C1(O)CCNC(Cc2ccccc2)C1 (centres unmarked) [Compound 241] as the compound, how does the “IC90 MSM 607” value read?
The value was 3.34 µg/mL (≈ 6.77 µM).

COc1nc2ccc(S(C)(=O)=O)cc2cc1C(c1ccccc1)C1(O)CCNC(c2ccc(F)cc2C)C1 (centres unmarked) [Compound 253] was tested. Which “IC90 MSM 607” value did it give?
Its value is greater than 13.43 µg/mL.

With O=c1[nH]c2ccc(Br)cc2cc1C(c1ccc(Cl)cc1)C1(O)CCNC(CC2CCCCC2)C1 (centres unmarked) [Compound 254] as the compound, how does the “IC90 MSM 607” value read?
Its value is 3.60 µg/mL (≈ 6.62 µM).

For O=c1[nH]c2ccc(Br)cc2cc1C(c1ccc(Cl)cc1)C1(O)CCNC(CC2CCCCC2)C1 (centres unmarked) [Compound 255], which “IC90 MSM 607” value is on record?
The value was 7.28 µg/mL (≈ 13.4 µM).

How did the “IC90 MSM 607” value turn out when O=c1[nH]c2ccc(Br)cc2cc1C(c1ccc(Cl)cc1)C1(O)CCNC(CC2CCCCC2)C1 (centres unmarked) [Compound 258] was run?
The value was 3.66 µg/mL (≈ 6.73 µM).

For Cc1cc(F)ccc1C1CC(O)(C(c2ccccc2)c2cc3cc(S(C)(=O)=O)ccc3[nH]c2=O)CCN1 (centres unmarked) [Compound 263], which “IC90 MSM 607” value is on record?
Its value is greater than 13.89 µg/mL.

With Cc1cc(F)ccc1C1CC(O)(C(c2ccccc2)c2cc3cc(S(C)(=O)=O)ccc3[nH]c2=O)CCN1 (centres unmarked) [Compound 264] as the compound, how does the “IC90 MSM 607” value read?
The value was 3.49 µg/mL (≈ 6.7 µM).

For Cc1cc(F)ccc1C1CC(O)(C(c2ccccc2)c2cc3cc(S(C)(=O)=O)ccc3[nH]c2=O)CCN1 (centres unmarked) [Compound 265], which “IC90 MSM 607” value is on record?
The value was 13.92 µg/mL (≈ 26.7 µM).

Which “IC90 MSM 607” value does the source give for CSc1ccc2[nH]c(=O)c(C(c3ccc(Cl)cc3)C3(O)CCNC(c4ccc(F)cc4C)C3)cc2c1 (centres unmarked) [Compound 268] here?
The value was 1.40 µg/mL (≈ 2.68 µM).

Cc1cc(F)ccc1C1CC(O)(C(c2cccc(Cl)c2)c2cc3cc(S(C)(=O)=O)ccc3[nH]c2=O)CCN1 (centres unmarked) [Compound 269] was tested. Which “IC90 MSM 607” value did it give?
The value was greater than 14.75 µg/mL.

How did the “IC90 MSM 607” value turn out when Cc1cc(F)ccc1C1CC(O)(C(c2cccc(Cl)c2)c2cc3cc(S(C)(=O)=O)ccc3[nH]c2=O)CCN1 (centres unmarked) [Compound 270] was run?
The value was 5.89 µg/mL (≈ 10.6 µM).

For Cc1cc(F)ccc1C1CC(O)(C(c2cccc(Cl)c2)c2cc3cc(S(C)(=O)=O)ccc3[nH]c2=O)CCN1 (centres unmarked) [Compound 271], which “IC90 MSM 607” value is on record?
Its value is 9.34 µg/mL (≈ 16.8 µM).

Cc1cc(F)ccc1C1CC(O)(C(c2cccc(Cl)c2)c2cc3cc(S(C)(=O)=O)ccc3[nH]c2=O)CCN1 (centres unmarked) [Compound 272] was tested. Which “IC90 MSM 607” value did it give?
Its value is greater than 14.78 µg/mL.

How did the “IC90 MSM 607” value turn out when COc1nc2ccc(SC)cc2cc1C(c1ccc(Cl)cc1)C1(O)CCNC(c2ccc(F)cc2C)C1 (centres unmarked) [Compound 274] was run?
The value was 1.07 µg/mL (≈ 1.99 µM).

How did the “IC90 MSM 607” value turn out when COc1nc2ccc(SC)cc2cc1C(c1ccc(Cl)cc1)C1(O)CCNC(c2ccc(F)cc2C)C1 (centres unmarked) [Compound 276] was run?
Its value is 1.07 µg/mL (≈ 1.99 µM).

How did the “IC90 MSM 607” value turn out when CSc1ccc2[nH]c(=O)c(C(c3ccc(Cl)cc3)C3(O)CCNC(c4ccc(F)cc4C)C3)cc2c1 (centres unmarked) [Compound 277] was run?
Its value is 1.40 µg/mL (≈ 2.68 µM).

With CSc1ccc2[nH]c(=O)c(C(c3ccc(Cl)cc3)C3(O)CCNC(c4ccc(F)cc4C)C3)cc2c1 (centres unmarked) [Compound 278] as the compound, how does the “IC90 MSM 607” value read?
The value was 1.40 µg/mL (≈ 2.68 µM).

Cc1cc(F)ccc1C1CC(O)(C(c2ccccc2)c2cc3cc(Br)ccc3[nH]c2=O)CCN1 (centres unmarked) [Compound 279] was tested. Which “IC90 MSM 607” value did it give?
The value was 7.00 µg/mL (≈ 13.4 µM).

With Cc1cc(F)ccc1C1CC(O)(C(c2ccccc2)c2cc3cc(Br)ccc3[nH]c2=O)CCN1 (centres unmarked) [Compound 280] as the compound, how does the “IC90 MSM 607” value read?
Its value is 1.10 µg/mL (≈ 2.11 µM).

For CSc1ccc2[nH]c(=O)c(C(c3ccc(Cl)cc3)C3(O)CCNC(Cc4ccc(F)cc4)C3)cc2c1 (centres unmarked) [Compound 282], which “IC90 MSM 607” value is on record?
Its value is 7.02 µg/mL (≈ 13.4 µM).

How did the “IC90 MSM 607” value turn out when COc1nc2ccc(SC)cc2cc1C(c1ccc(Cl)cc1)C1(O)CCNCC1Cc1cccc(F)c1 (centres unmarked) [Compound 284] was run?
Its value is 3.38 µg/mL (≈ 6.29 µM).

Test system: Staphylococcus aureus (ATCC29213)
Experiment: In-vitro anti-bacterial activity, microtitre plate assay, IC90 determination (non-mycobacterial strains)
Assay type: cell-based
Conditions: 90% inhibitory concentration for bacterial growth, 24 hours, resazurin fluorescence
Procedure, shortened: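 Growth inhibition measured fluorometrically with resazurin (530/590 nm) after overnight 37 °C incubation under normal atmosphere. Bacteria added at roughly 100 TCID50 per well in Mueller-Hinton broth to five-fold compound dilution series; IC90 reported in μg/ml.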

How did the “IC90 STA B29213” value turn out when Cc1cc(F)ccc1C1CC(O)(C(c2ccccc2)c2cc3cc(S(C)(=O)=O)ccc3[nH]c2=O)CCN1 (centres unmarked) [Compound 238] was run?
Its value is greater than 13.99 µg/mL.

Which “IC90 STA B29213” value does the source give for O=c1[nH]c2ccc(Cl)cc2cc1C(c1ccc(Cl)cc1)C1(O)CCNC(Cc2ccccc2)C1 (centres unmarked) [Compound 239] here?
The value was 1.67 µg/mL (≈ 3.38 µM).

How did the “IC90 STA B29213” value turn out when O=c1[nH]c2ccc(Cl)cc2cc1C(c1ccc(Cl)cc1)C1(O)CCNC(Cc2ccccc2)C1 (centres unmarked) [Compound 240] was run?
Its value is 6.67 µg/mL (≈ 13.5 µM).

How did the “IC90 STA B29213” value turn out when O=c1[nH]c2ccc(Cl)cc2cc1C(c1ccc(Cl)cc1)C1(O)CCNC(Cc2ccccc2)C1 (centres unmarked) [Compound 241] was run?
The value was 4.72 µg/mL (≈ 9.57 µM).

With COc1nc2ccc(S(C)(=O)=O)cc2cc1C(c1ccccc1)C1(O)CCNC(c2ccc(F)cc2C)C1 (centres unmarked) [Compound 253] as the compound, how does the “IC90 STA B29213” value read?
The value was greater than 13.43 µg/mL.

How did the “IC90 STA B29213” value turn out when O=c1[nH]c2ccc(Br)cc2cc1C(c1ccc(Cl)cc1)C1(O)CCNC(CC2CCCCC2)C1 (centres unmarked) [Compound 255] was run?
The value was 3.65 µg/mL (≈ 6.71 µM).

Which “IC90 STA B29213” value does the source give for O=c1[nH]c2ccc(Br)cc2cc1C(c1ccc(Cl)cc1)C1(O)CCNC(CC2CCCCC2)C1 (centres unmarked) [Compound 258] here?
Its value is 3.66 µg/mL (≈ 6.73 µM).

Which “IC90 STA B29213” value does the source give for Cc1cc(F)ccc1C1CC(O)(C(c2ccccc2)c2cc3cc(S(C)(=O)=O)ccc3[nH]c2=O)CCN1 (centres unmarked) [Compound 263] here?
The value was greater than 13.89 µg/mL.

How did the “IC90 STA B29213” value turn out when Cc1cc(F)ccc1C1CC(O)(C(c2ccccc2)c2cc3cc(S(C)(=O)=O)ccc3[nH]c2=O)CCN1 (centres unmarked) [Compound 264] was run?
Its value is greater than 13.88 µg/mL.

For Cc1cc(F)ccc1C1CC(O)(C(c2ccccc2)c2cc3cc(S(C)(=O)=O)ccc3[nH]c2=O)CCN1 (centres unmarked) [Compound 265], which “IC90 STA B29213” value is on record?
Its value is greater than 13.92 µg/mL.

Which “IC90 STA B29213” value does the source give for CSc1ccc2[nH]c(=O)c(C(c3ccc(Cl)cc3)C3(O)CCNC(c4ccc(F)cc4C)C3)cc2c1 (centres unmarked) [Compound 268] here?
Its value is 1.76 µg/mL (≈ 3.36 µM).

How did the “IC90 STA B29213” value turn out when Cc1cc(F)ccc1C1CC(O)(C(c2cccc(Cl)c2)c2cc3cc(S(C)(=O)=O)ccc3[nH]c2=O)CCN1 (centres unmarked) [Compound 269] was run?
The value was greater than 14.75 µg/mL.

Cc1cc(F)ccc1C1CC(O)(C(c2cccc(Cl)c2)c2cc3cc(S(C)(=O)=O)ccc3[nH]c2=O)CCN1 (centres unmarked) [Compound 270] was tested. Which “IC90 STA B29213” value did it give?
The value was 7.42 µg/mL (≈ 13.4 µM).

How did the “IC90 STA B29213” value turn out when Cc1cc(F)ccc1C1CC(O)(C(c2cccc(Cl)c2)c2cc3cc(S(C)(=O)=O)ccc3[nH]c2=O)CCN1 (centres unmarked) [Compound 271] was run?
Its value is 7.42 µg/mL (≈ 13.4 µM).

For Cc1cc(F)ccc1C1CC(O)(C(c2cccc(Cl)c2)c2cc3cc(S(C)(=O)=O)ccc3[nH]c2=O)CCN1 (centres unmarked) [Compound 272], which “IC90 STA B29213” value is on record?
The value was greater than 14.78 µg/mL.

How did the “IC90 STA B29213” value turn out when COc1nc2ccc(SC)cc2cc1C(c1ccc(Cl)cc1)C1(O)CCNC(c2ccc(F)cc2C)C1 (centres unmarked) [Compound 274] was run?
The value was 1.91 µg/mL (≈ 3.56 µM).

Which “IC90 STA B29213” value does the source give for COc1nc2ccc(SC)cc2cc1C(c1ccc(Cl)cc1)C1(O)CCNC(c2ccc(F)cc2C)C1 (centres unmarked) [Compound 276] here?
The value was 1.70 µg/mL (≈ 3.17 µM).

With CSc1ccc2[nH]c(=O)c(C(c3ccc(Cl)cc3)C3(O)CCNC(c4ccc(F)cc4C)C3)cc2c1 (centres unmarked) [Compound 277] as the compound, how does the “IC90 STA B29213” value read?
Its value is 1.76 µg/mL (≈ 3.36 µM).

Which “IC90 STA B29213” value does the source give for CSc1ccc2[nH]c(=O)c(C(c3ccc(Cl)cc3)C3(O)CCNC(c4ccc(F)cc4C)C3)cc2c1 (centres unmarked) [Compound 278] here?
Its value is 1.77 µg/mL (≈ 3.38 µM).

How did the “IC90 STA B29213” value turn out when Cc1cc(F)ccc1C1CC(O)(C(c2ccccc2)c2cc3cc(Br)ccc3[nH]c2=O)CCN1 (centres unmarked) [Compound 279] was run?
The value was 7.00 µg/mL (≈ 13.4 µM).

How did the “IC90 STA B29213” value turn out when Cc1cc(F)ccc1C1CC(O)(C(c2ccccc2)c2cc3cc(Br)ccc3[nH]c2=O)CCN1 (centres unmarked) [Compound 280] was run?
Its value is 1.75 µg/mL (≈ 3.36 µM).

How did the “IC90 STA B29213” value turn out when CSc1ccc2[nH]c(=O)c(C(c3ccc(Cl)cc3)C3(O)CCNC(Cc4ccc(F)cc4)C3)cc2c1 (centres unmarked) [Compound 282] was run?
Its value is 7.02 µg/mL (≈ 13.4 µM).

Which “IC90 STA B29213” value does the source give for COc1nc2ccc(SC)cc2cc1C(c1ccc(Cl)cc1)C1(O)CCNCC1Cc1cccc(F)c1 (centres unmarked) [Compound 284] here?
Its value is 4.25 µg/mL (≈ 7.91 µM).

Same assay, conditions: Staphylococcus aureus, ATCC29213, 24 h, 90% inhibitory concentration for bacterial growth, resazurin fluorescence, read-out: IC90 STA B29213

For Cc1cc(F)ccc1C1CC(O)(C(c2ccccc2)c2cc3cc(S(C)(=O)=O)ccc3[nH]c2=O)CCN1 (centres unmarked) [Compound 237], which IC90 is on record?
Its IC90 is greater than 13.9 µg/mL.

For O=c1[nH]c2ccc(Br)cc2cc1C(c1ccc(Cl)cc1)C1(O)CCNC(CC2CCCCC2)C1 (centres unmarked) [Compound 254], which IC90 is on record?
The IC90 was 3.6 µg/mL (≈ 6.62 µM).
